# Patent US8642656B2, “Calixarene-based peptide conformation mimetics, methods of use, and methods of making” (priority 2004, dated 2014)
# Read-outs that look alike come from different tables or passages of the source. Ends that are not written are not given here.
# Legend:
# [1] = system: MA148; experiment: Other cells, MA148 (Table 1); assay type: cell-based, human
# [2] = system: Fibro; experiment: Other cells, Fibro (Table 1); assay type: cell-based
# [3] = Hemolysis (Table 1); assay type: cell-based; details: at 10^−5 M
# [4] = system: endothelial cell (EC); experiment: EC Proliferation Assay, [3H]thymidine incorporation (Example 36, Table 1); assay type: cell-based; details: read-out: EC proliferation IC50 (conc)
# Protocol: Human umbilical vein derived EC(HUVEC) were harvested from normal human umbilical cords by perfusion with 0.125% trypsin/EDTA as described in Groenewegen et al., J. Exp. Med. 164, 131-143 (1986). For determination of quiescent EC phenotype isolated ECs were immediately fixed in 1% paraformaldehyde. Human microvascular ECs (MVECs) were isolated. ECs were cultured in fibronectin coated tissue culture flasks in culture medium (RPMJ-1640 with 20% human serum (HS), supplemented with 2 mM glutamine and 100 U/ml penicillin and 0.1 mg/ml streptomycin).
# EC proliferation was measured using a [^3H]thymidine incorporation assay. ECs were seeded at 5000 cells/well in flatbottomed tissue culture plates and grown for 3 days, in the absence or presence of regulators, in culture medium. During the last 6 hours of the assay, the culture was pulsed with 0.5μ Ci [methyl-^3H]thymidine/well.
# [5] = system: EC; experiment: EC % total cell death (Table 1); assay type: cell-based, human
# [6] = system: SCK; experiment: Other cells, SCK (Table 1); assay type: cell-based
# [7] = system: E. coli J96; experiment: Bactericidal assay on J96; assay type: cell-based; details: read-out: Bacterial activity on J96 IC50 (conc)
# Source text: Pseudomonas aeruginosa type 1 is a clinical, smooth strain isolate stereotyped by using the scheme of Homma et al., Japan. J. Exp. Med. 46, 329-336 (1976) and maintained in the lab by monthly transfer on blood agar plates. E. coli J96, IA2, and H5 are smooth strain, uropathogenic clinical isolates kindly maintained and provided by J. R. Johnson and described in Johnson et al., J. Infect. Disease 173, 920-926 (1996) for J96 and IA2 and in Johnson et al., J. Infect. Disease 173, 746-749 (1996) for H5. J5 is an E. coli rough strain initially referenced by G. R. Siber and discussed in Warren et al., Infect. Immunity 55, 1668-1673 (1987) and is analogous to the smooth strain E. coli 0111:B4 used in the BioWhittaker LAL endotoxin detection and quantitation kit described below. Gram-positive MN8 and MNHO are two patient isolates of Staphylococcus aureus, which were kindly provided by P. M. Schlievert and described in Bohach et al., Rev. Infect. Diseases 11, 75-82 (1989) for MNHO and in Schlievert et al., J. Infect. Diseases 147, 236-242 (1983) for MN8. All cultures are maintained on nutrient agar plates.
# Pyrogen-free solutions were used throughout the assay. Log phase bacteria were obtained by transferring an overnight culture or scraping crystals off-85° C glycerol stocks of overnight cultures. Bacteria were washed and resuspended in 0.9% sodium chloride with adjustment to an optical density at 650 nm which yields 3×10^8 CFU/ml. Bacteria were then diluted 1:10 in 0.08 M citrate phosphate buffer, pH 7.0 (prepared by mixing 0.08 M citric acid with 0.08 M dibasic sodium phosphate). Bacteria (0.15 ml) were incubated with the test compound in a final volume of 1.0 ml of buffer. The assay was done in 17×100 polypropylene tubes in a reciprocal water bath shaker at 37° C for 30 minutes. Following this 30 minute (min) incubation. 10-fold dilutions were made in 0.9% sodium chloride. Dilutions were done to 10^−4 and 20 μl of each dilution was streaked across an agar plate. Gram-positive organisms were plated on nutrient agar plates containing 2% agar and Gram-negative organisms were plated on MacConkey agar (2%). Plates were incubated overnight at 37° C and counted the next morning. The dilution containing 10-100 bacteria was counted and the number multiplied by 50 to adjust all counts to the number bacteria killed per milliliter. Compound concentrations were converted to logarithm base ten and graphed. Bactericidal activity was determined by dose response where LD50 values were determined by best fits of a sigmoidal curve to the dose response data.
# [8] = Solubility (Table 1); assay type: physicochemical; details: H2O, at pH <7.0, r.t.
# [9] = system: EC; experiment: EC % apoptosis (Table 1); assay type: cell-based, human
# [10] = system: LPS from S. marcascens; experiment: LPS neutralization assay (Limulus amoebocyte lysate, QCL-1000); assay type: biochemical, Serratia marcascens; details: read-out: IC50 values (μM) for LPS binding, Serratia
# Source text: (§1) The ability of compounds to neutralize endotoxin was detected in vitro by using the chromogenic QCL-1000 kit from BioWhittaker, Inc. (Walkersville, Md.), and as described in their protocol. This Limulus amoebocyte lysate (LAL) assay is quantitative for Gram negative bacterial endotoxin (lipopolysaccharide, LPS). In this assay compounds that are active inhibit the LPS-mediated activation of a proenzyme whose active form would release p-nitroaniline (pNA) from a colorless synthetic substrate producing a yellow color (pNA) whose absorption is monitored spectrophotometrically at 405-410 nm. The initial rate of enzyme activation is proportional to the concentration of endotoxin present.
# (§2) Variants of LPS from six Gram negative bacteria were used: E. coli serotypes 0111:B4 (Combrex, Walkersville, Md.) and 055:B5 (Sigma, St. Louis, Mo.); Klebsiella pneumoniae (List Biologies, San Jose, Calif.); Pseudomonas aeruginosa (List Biologies, San Jose, Calif.); Salmonella typhimurium (List Biologies, San Jose, Calif.), and Serratia marcascens (List Biologies, San Jose, Calif.). The concentration of compound required to neutralize a given LPS and therefore to inhibit the Limulus amoebocyte lysate driven by 0.04 units of any given LPS was determined by dose response curves fit by using a standard sigmoidal function to determined the JC50 value for each lopomimetic compound. The 0.04 units corresponds to 0.01 ng LPS from E. coli serotype 055:B5, 0.01 ng LPS from E. coli serotype 0111:B4, 0.003 ng LPS from K. pneumoniae, 0.01 ng LPS from P. aeruginosa, 0.03 ng LPS from S. typhimurium, and 0.03 ng LPS from S. marcascens.
# [11] = Toxicity assays in tumor-bearing mice: behavior, body weight, organ morphology; assay type: in vivo; details: all in vivo tumor experiments
# Protocol: (§3) As an indirect measurement of general toxicity, body weights of mice were monitored twice weekly, using a digital balance (Ohaus Florham, N.J.). To determine hematocrit levels, blood samples were extracted by tail vein bleedings one day after terminating treatment, and blood was collected in heparinized micro-hematocrit capillary lubes (Fisher Pittsburgh, Pa.). Samples were spun down for 10 minutes in a micro-hematocrit centrifuge (Clay-Adams; NY), and the amount of hematocrit was determined using an international microcapillary reader (IEC; Needham, Mass.).
# [12] = system: LPS from K. pneumoniae; experiment: LPS neutralization assay (Limulus amoebocyte lysate, QCL-1000); assay type: biochemical, Klebsiella pneumoniae; details: read-out: IC50 values (μM) for LPS binding, Klebsiella
# Source text: as §1, §2
# [13] = Hematocrit levels, study with B16 tumors in immune competent mice; assay type: in vivo; details: vehicle 51±1.4
# Protocol: as §3
# [14] = system: LPS from S. typhimurium; experiment: LPS neutralization assay (Limulus amoebocyte lysate, QCL-1000); assay type: biochemical, Salmonella typhimurium; details: read-out: IC50 values (μM) for LPS binding, Salmonella
# Source text: as §1, §2
# [15] = system: B16F10 tumor cells; experiment: Proliferation of B16F10 tumor cells; assay type: cell-based, murine
# [16] = system: B16F10 tumor; experiment: TUNEL staining for total cell apoptosis, B16F10 tumors; assay type: in vivo, mice; details: B16F10, 10 mg/kg; mean ± standard error, 20 images
# Protocol: (§4) To assess the extent of total cell apoptosis, tumor tissue sections were stained by using the TUNEL (terminal deoxyribonucleotidyl transferase-mediated dUTP-nick-end labeling) assay, which was performed according to the manufacturer's instructions (In situ cell death detection kit, fluorescein; TUNEL, Roche). After 1-hour incubation at room temperature, slides were washed with PBS and immediately imaged using an Olympus BX-60 fluorescence microscope at 200× magnification.
# [17] = system: MA148 human ovarian carcinoma; details: 10 mg/kg/day; Dings et al., Cancer Lett 194; cited from earlier work
# [18] = system: B16F10 tumor vessels; experiment: Histological analysis of microvessel density, anti-CD31 staining, B16F10 tumors; assay type: in vivo, mice; details: B16F10, 10 mg/kg; mean ± standard error, 20 images
# Protocol: (§5) Immunohistochemistry was used to assess microvessel density and the extent of total cell apoptosis. Approximately, tumors of the same size and with no apparent necrosis were selected for processing. On the last day of treatment mice were sacrificed and tumors were excised. Tumor tissue was embedded in tissue freezing medium (Miles Inc, Elkart, Ind.) and shock frozen in liquid nitrogen. Sections of tissue (10 μm thickness) were prepared for immunohistochemical analysis. For this, tissue sections were brought to room temperature, air dried overnight, and then fixed in acetone for 10 minutes. Slides were allowed to air dry for at least 30 minutes and were washed three limes for 5 minutes each in phosphate-buffered saline (PBS, pH 7.4). Samples were then blocked with PBS containing 0.1% bovine serum albumin and 3% human serum albumin for at least 30 minutes at room temperature in a humidified box. Samples were subsequently incubated with phycoerytrin (PE)-conjugated monoclonal antibody to CD31 (PECAM-1) in a 1:50 dilution (Pharmigen, San Diego, Calif.) to stain for microvessel density.
# (§6) Digital images were stored and processed using Adobe Photoshop (Adobe Inc., Mountain View Calif.). Quantification of microvessel density, were determined as described previously (Dings et al., Cancer Res 63, 382-385 (2003)). Statistical analysis was performed using the Student's t-test.
# [19] = system: MA148 tumor vessels; experiment: Histological analysis of microvessel density, anti-CD31 staining, MA148 tumors; assay type: in vivo, mice; details: MA148, 10 mg/kg; mean ± standard error, 20 images
# Protocol: as §5, §6
# [20] = system: LPS from E. coli serotype 055:B5; experiment: LPS neutralization assay (Limulus amoebocyte lysate, QCL-1000); assay type: biochemical
# Source text: as §1, §2
# [21] = system: LPS from E. coli serotype 0111:B4; experiment: as above; assay type: biochemical; details: read-out: IC50 values (μM) for LPS binding, E. coli 0111:B4
# Source text: as §1, §2
# [22] = Hematocrit levels, first (MA148) study; assay type: in vivo, mice; details: 10 mg/kg; last day of treatment; vehicle 47±5.7
# Protocol: as §3
# [23] = system: MA148 tumor; experiment: TUNEL staining for total cell apoptosis, MA148 tumors; assay type: in vivo, mice; details: MA148, 10 mg/kg; mean ± standard error, 20 images
# Protocol: as §4
# [24] = system: LPS from P. aeruginosa; experiment: LPS neutralization assay (Limulus amoebocyte lysate, QCL-1000); assay type: biochemical, Pseudomonas aeruginosa; details: read-out: IC50 values (μM) for LPS binding, P.a.
# Source text: as §1, §2
# [25] = system: fibroblasts; experiment: Proliferation of fibroblasts (general cell toxicity check); assay type: cell-based
compound,measurement,setting,value
CN(C)CCNC(=O)COc1c2cccc1Cc1cccc(c1OCC(=O)NCCN(C)C)Cc1cccc(c1OCC(=O)NCCN(C)C)Cc1cccc(c1OCC(=O)NCCN(C)C)C2 [drawing 7],"Other cells 25 μM, MA148",[1],80%
same,"Other cells 25 μM, Fibro",[2],0%
same,Hemolysis,[3],None at 10^−5 M
same,IC50,[4],2.5 µM
same,EC % total cell death,[5],No effect
same,"Other cells 25 μM, SCK",[6],40%
same,IC50,[7],> 3.8 µM
same,Solubility,[8],"H2O up to 30 mg/ml at pH <7.0, r.t."
same,EC % Apoptosis 25 μM,[9],No effect
"ANIKLSVQMKLFKRHLKWKIIVKLNDGRELSLD [βpep-25, reference compound]",IC50,[10]; Table 2,4.1 µM
same,IC50,"[10]; Table 3, errors estimated ±30%",4.1 µM
same,"signs of toxicity (behavior, weight gain, hematocrit), in words",[11],did not generally show signs of toxicity
same,IC50,[12]; Table 2,2 µM
same,IC50,"[12]; Table 3, errors estimated ±30%",2 µM
same,Hematocrit levels ±SD,[13],52.5±3.5 percentage red blood cells
same,IC50,[14]; Table 2,2.5 µM
same,IC50,"[14]; Table 3, errors estimated ±30%",2.5 µM
same,IC50 against B16F10 tumor cells,[15],neither demonstrated activity
same,Apoptosis,[16],3303 ± 606 pixel counts per image
same,MA148 tumor inhibition shown previously,[17],60 to 70%
same,Branch Points,[18],4.5 ± 0.6 pixel counts per image
same,End Points,[18],31.9 ± 3.8 pixel counts per image
same,Vessel Density,[18],14050 ± 1826 pixel counts per image
same,Vessel Length,[18],10.2 ± 1.2 pixel counts per image
same,Branch Points,[19],2.0 ± 0.5 pixel counts per image
same,End Points,[19],16.6 ± 1.8 pixel counts per image
same,Vessel Density,[19],7415 ± 686 pixel counts per image
same,Vessel Length,[19],4.9 ± 0.6 pixel counts per image
same,IC50,"[20]; Table 2, read-out: IC50 values (μM) for LPS binding, E. coli 055:B4",2.5 µM
same,IC50,"[20]; Table 3, errors estimated ±30%, read-out: IC50 values (μM) for LPS binding, E. coli 055:B5",2.5 µM
same,IC50,[21]; Table 2,2 µM
same,IC50,"[21]; Table 3, errors estimated ±30%",2 µM
same,Hematocrit levels ±SD,[22],47±2.8 percentage of red blood cells
same,Apoptosis,[23],2418 ± 77 pixel counts per image
same,IC50,[24]; Table 2,1.2 µM
same,IC50,"[24]; Table 3, errors estimated ±30%",1.2 µM
same,"concentration giving 50% growth inhibition, fibroblasts",[25],no delectable effects
